# Assays:
# [1] = Bioavailability of imetelstat sodium in rats via subcutaneous and intravenous routes (plasma LC/MS/MS, noncompartmental PK); type: in vivo, Sprague-Dawley rats
# Procedure: 4 male, Sprague-Dawley rats (approximately 250 g-260 g) were dosed intravenously (IV volume 37.5 μL; 30 mg/kg) and 4 male, Sprague-Dawley rats (approximately 250 g-260 g) were dosed subcutaneously (SC volume 113 μL; 90 mg/kg) with imetelstat sodium. Imetelstat sodium is a 5′ palmitoylated 13-mer thiophosphoramidate oligonucleotide composed of the sequence 5′-TAGGGTTAGACAA-3′. Imetelstat sodium was dissolved in water immediately before dosing.
# Blood was collected from each of the rats at time points of 0.083 hours (˜5 minutes), 0.25 hours (15 minutes), 1 hour, 2 hours, 4 hours, 8 hours and at 24 hours. A volume of […] of whole blood was collected, yielding about 700 μL to 1000 μL of plasma. Blood was collected through a secondary catheter in IV dosed rats (different from the one used for IV dosing).
# Blood samples were collected in EDTA tubes and centrifuged immediately after collection. Collected plasma samples were transferred to a separate vial. Plasma concentration of imetelstat sodium was analyzed by LC/MS/MS.
# The plasma concentrations of imetelstat sodium that were analyzed over a 24 hour period are depicted in FIG. 1. The plasma concentrations of imetelstat sodium were analyzed by a noncompartmental PK analysis. The subcutaneous (s.c.) bioavailability was calculated based on the following equation: F=(AUC(s.c.)/Dose(s.c.))/(AUC(i.v.)/Dose(i.v.))×100%.
# [2] = Pre-study compatibility of imetelstat co-formulated with rHuPH20 (appearance, UV assay, water content, pH, RP-HPLC/UV); type: physicochemical
# Procedure: The following formulations were prepared
# [3] = test system: template region of the RNA component of telomerase; details: background statement; cited from earlier work
# [4] = test system: cancer cell lines and human tumors; details: U.S. Pat. No. 7,494,982, cited from earlier work
# [5] = test system: patients with lower risk myelodysplastic syndrome; details: administered intravenously; cited from earlier work
# [6] = test system: patients with myelofibrosis; details: administered intravenously, correlated with reduction of mutation burden and cytogenetic abnormalities; cited from earlier work
smiles,measurement,setting,value
"CCCCCCCCCCCCCCCC(=O)NCC(O)COP(=O)([S-])OC[C@H]1O[C@@H](n2cc(C)c(=O)[nH]c2=O)CC1NP(=O)([S-])OC[C@H]1O[C@@H](n2cnc3c(N)ncnc32)CC1NP(=O)([S-])OC[C@H]1O[C@@H](n2cnc3c(=O)[nH]c(N)nc32)CC1NP(=O)([S-])OC[C@H]1O[C@@H](n2cnc3c(=O)[nH]c(N)nc32)CC1NP(=O)([S-])OC[C@H]1O[C@@H](n2cnc3c(=O)[nH]c(N)nc32)CC1NP(=O)([S-])OC[C@H]1O[C@@H](n2cc(C)c(=O)[nH]c2=O)CC1NP(=O)([S-])OC[C@H]1O[C@@H](n2cc(C)c(=O)[nH]c2=O)CC1NP(=O)([S-])OC[C@H]1O[C@@H](n2cnc3c(N)ncnc32)CC1NP(=O)([S-])OC[C@H]1O[C@@H](n2cnc3c(=O)[nH]c(N)nc32)CC1NP(=O)([S-])OC[C@H]1O[C@@H](n2cnc3c(N)ncnc32)CC1NP(=O)([S-])OC[C@H]1O[C@@H](n2ccc(N)nc2=O)CC1NP(=O)([S-])OC[C@H]1O[C@@H](n2cnc3c(N)ncnc32)CC1NP(=O)([S-])OC[C@H]1O[C@@H](n2cnc3c(N)ncnc32)CC1N.[Na+].[Na+].[Na+].[Na+].[Na+].[Na+].[Na+].[Na+].[Na+].[Na+].[Na+].[Na+].[Na+] (stereo partly drawn) [imetelstat sodium, 5′ palmitoylated 13-mer thiophosphoramidate oligonucleotide composed of the sequence 5′-TAGGGTTAGACAA-3′]",calculated subcutaneous bioavailability (F),"[1]; SC 90 mg/kg vs IV 30 mg/kg, F=(AUC(s.c.)/Dose(s.c.))/(AUC(i.v.)/Dose(i.v.))×100%, 24 hour period",about 95.8%
same,calculated subcutaneous bioavailability (F),[1]; repeated experiment,about 81.5%
same,Individual Impurities by RP-HPLC/UV: Unlipidated species,[2]; RRT 0.42,0.26% Area
same,Individual Impurities by RP-HPLC/UV: Pre-Peak,[2]; RRT 0.98,0.35% Area
same,Individual Impurities by RP-HPLC/UV: Post-Peak 1,[2]; RRT 1.04,5.04% Area
same,Individual Impurities by RP-HPLC/UV: Post-Peak 2,[2]; RRT 1.08,0.53% Area
same,Individual Impurities by RP-HPLC/UV: Post-Peak 3,"[2]; RRT 1.12 (Imetelstat Only), 1.09 (co-formulations)",<0.2% Area
same,Assay by UV,[2]; pre-study,1033 µg/mg
same,Water Content,[2]; pre-study,4.2%
same,"pH (1 mL, Plastic)",[2]; pre-study,8.0
same,Purity by RP-HPLC/UV,[2]; pre-study compatibility,93.1%
same,Total Impurities by RP-HPLC/UV,[2]; pre-study compatibility,6.9%
same,Appearance of Reconstituted Solution,"[2]; pre-study, Imetelstat Only = most current stability data of the drug substance lot","Clear solution,"
same,binding to the template region of the RNA component of telomerase,[3],high affinity
same,telomerase activity inhibition,[4]; background,inhibits telomerase activity
same,effect on cell proliferation,[4]; multitude of different cancer cell lines and human tumors,effective against cell proliferation
same,transfusion independence,[5],able to achieve durable transfusion independence in certain patients
same,overall survival and bone marrow fibrosis,[6],able to achieve improvement in overall survival and bone marrow fibrosis
